From ChEMBL document CHEMBL1121629, “1-(Aminoalkyl)-6-aryl-4-H-s-triazolo[4,3-a][1,4]benzodiazepines with antianxiety and antidepressant activity” (1980) come the findings set out here.

As usually defined, the ED50 is the dose at which the effect has come halfway, by size or by number of responders.

What all share (format): functional
The species named for assay [1] is Mus musculus. As to the kind of experiment: Tested for antagonism of bicuculline-induced tonic-extensor convulsions (B) in mice.
Assay [2] is filed under the species Mus musculus. As to the kind of experiment: Tested for antagonism of pentylenetetrazole-induced clonic convulsions (P) in mice.
The species entered for assay [3] is Mus musculus. As to the kind of experiment: Tested for potentiation of gamma-butyrolactone induced sleep (gamma-B) in mice.
For assay [4], the species on record is Mus musculus. As to the kind of experiment: Tested for potentiation of yohimbine toxicity in aggregated mice(Y).
Assay [5] is filed under the species Mus musculus. As to the kind of experiment: Prolongation of hypoxic survival time (HS) in mice.
Assay [6] is filed under the species Mus musculus. As to the kind of experiment: Tested for stereotyped gnawing and licking behavior of mice pretreated with apomorphine (AG).
Assay [7] is filed under the species Mus musculus. As to the kind of experiment: Tested for antagonism of oxotremorine hypothermia (OX) in mice.
For assay [8], the species on record is Mus musculus. As to the kind of experiment: Tested for antagonism of nicotine-induced death (D) in mice.
The species entered for assay [9] is Mus musculus. As to the kind of experiment: Tested for antagonism of nicotine-induced tonic extensor convulsions (TE) in mice.

Molecules are shown by their SMILES. Where only a bound is given, the exact number is not on record here.

`NCCc1nnc2n1-c1ccccc1C(c1ccccc1Cl)=NC2`: the ED50 in [1] was over 50 mg/kg; in [2], over 50 mg/kg; in assay [3], 20 mg/kg; in assay [4] it was over 50 mg/kg; in assay [5], 20 mg/kg; in assay [6], over 50 mg/kg. The compound further returned an ED50 in assay [7] of over 50 mg/kg.
Take `CCN(CC)CCc1nnc2n1-c1ccc(Cl)cc1C(c1ccccc1)=NC2`: the 50% effective dose (ED50) is over 50 mg/kg in [1]; 2 mg/kg in [8]; 2 mg/kg in assay [9]; 25 mg/kg in assay [2]; 15 mg/kg in [3]; over 50 mg/kg in assay [4]. Besides, the ED50 in assay [5] is 40 mg/kg; in assay [6] it was over 50 mg/kg; in [7], 42 mg/kg.
Take `NCCc1nnc2n1-c1ccc(Br)cc1C(c1ccccn1)=NC2`: the ED50 in assay [1] was over 50 mg/kg; in assay [2] it was over 50 mg/kg; in assay [3], 30 mg/kg; in assay [4], 30 mg/kg; in assay [5] it was over 50 mg/kg; in assay [6], over 50 mg/kg. This compound also returned a 50% effective dose (ED50) in assay [7] of 30 mg/kg.
On to `CN(C)Cc1nnc2n1-c1ccc(Cl)cc1C(c1ccccc1Cl)=NC2`, for which the ED50 is 0.8 mg/kg in [1]; 0.06 mg/kg in assay [8]; 0.06 mg/kg in [9]; 0.1 mg/kg in [2]; 0.3 mg/kg in assay [3]; over 30 mg/kg in assay [4]. Also, the ED50 in assay [5] was 0.1 mg/kg; in [6], 17.8 mg/kg; in assay [7] it was over 30 mg/kg.
Consider `CN1CCN(Cc2nnc3n2-c2ccc(Cl)cc2C(c2ccccc2)=NC3)CC1`, for which the ED50 in [1] was 100 mg/kg; in assay [8], 5 mg/kg; in assay [9], 4.5 mg/kg; in assay [2], 100 mg/kg; in [3] it was 20 mg/kg; in assay [4], over 100 mg/kg. The ED50 in [5] is 50 mg/kg; in assay [6], over 100 mg/kg; in [7] it was over 100 mg/kg.
Turning to `CSc1ccc2c(c1)C(c1ccccc1)=NCc1nnc(CN(C)C)n1-2`, the ED50 is 10 mg/kg in [1]; 9 mg/kg in assay [2]; 10 mg/kg in assay [3]; 40 mg/kg in [4]; over 50 mg/kg in [5]; over 50 mg/kg in [6]. Moreover, the ED50 in assay [7] was determined as 10 mg/kg.
As to `CN(C)OCc1nnc2n1-c1ccc(Cl)cc1C(c1ccccc1)=NC2`, the ED50 in [1] was 0.2 mg/kg; in assay [2], 0.2 mg/kg; in [3], 0.1 mg/kg; in assay [4] it was over 50 mg/kg; in [5], over 0.2 mg/kg; in assay [6] it was over 50 mg/kg. In assay [7], this compound yielded an ED50 of over 50 mg/kg.
Regarding `CN(C)CCCN1c2ccccc2CCc2ccccc21` [IMIPRAMINE], the ED50 in [1] was 21 mg/kg; in [8], 7 mg/kg; in assay [9] it was 7 mg/kg; in assay [5], over 50 mg/kg; in assay [6], 0.9 mg/kg; in assay [7] it was 1.3 mg/kg.
Consider `CC(N)Cc1nnc2n1-c1ccccc1C(c1ccccc1Cl)=NC2` (stereo unspecified), for which the ED50 in assay [1] is over 50 mg/kg; in assay [2] it was over 50 mg/kg; in assay [3] it was over 50 mg/kg; in [4], 20 mg/kg; in assay [5], 10 mg/kg; in [6], over 50 mg/kg. In addition, the ED50 in [7] was over 50 mg/kg.
As for `CN(C)CCCc1nnc2n1-c1ccc(Cl)cc1C(c1ccccc1Cl)=NC2`, the ED50 in assay [1] is 2.6 mg/kg; in assay [2], 2.2 mg/kg; in [3], 0.2 mg/kg; in assay [4], 25 mg/kg; in assay [5] it was 2.2 mg/kg; in assay [6], over 50 mg/kg. Also, the ED50 in assay [7] is 25 mg/kg.
With `C[N+](C)([O-])Cc1nnc2n1-c1ccc(Cl)cc1C(c1ccccc1)=NC2`, the ED50 in assay [1] is 0.8 mg/kg; in assay [2], 0.3 mg/kg; in assay [3] it was 0.6 mg/kg; in assay [4], over 50 mg/kg; in assay [5] it was 5.3 mg/kg; in [6], over 50 mg/kg. Further, the ED50 in [7] turned out to be 5.3 mg/kg.
With `CC(N)Cc1nnc2n1-c1ccc(Cl)cc1C(c1ccccc1Cl)=NC2` (stereo unspecified), the ED50 was 7.4 mg/kg in [1]; 10.5 mg/kg in [2]; 3.7 mg/kg in assay [3]; over 50 mg/kg in [4]; 25 mg/kg in assay [5]; over 50 mg/kg in assay [6]. The same compound returned an ED50 in assay [7] of 17.7 mg/kg.
`CC(N)c1nnc2n1-c1ccccc1C(c1ccccc1Cl)=NC2` (stereo unspecified): the ED50 in assay [1] was 0.4 mg/kg; in assay [2], 0.2 mg/kg; in assay [3], 3 mg/kg; in assay [4] it was over 50 mg/kg; in assay [5] it was 0.2 mg/kg; in assay [6], over 50 mg/kg. The compound further displayed an ED50 in [7] of over 50 mg/kg.
In the case of `CC(N)Cc1nnc2n1-c1ccccc1C(c1ccccc1)=NC2` (stereo unspecified), the ED50 in [1] was over 50 mg/kg; in [2], over 50 mg/kg; in assay [3] it was over 50 mg/kg; in assay [4], 40 mg/kg; in [5] it was over 50 mg/kg; in assay [6], over 50 mg/kg. In assay [7], this compound showed an ED50 of over 50 mg/kg.
Turning to `CN(C)CCc1nnc2n1-c1ccccc1C(c1ccccc1Cl)=NC2`, the ED50 in [1] is over 50 mg/kg; in assay [2], 5 mg/kg; in [3] it was over 50 mg/kg; in assay [4], 30 mg/kg; in [5], 7 mg/kg; in [6], over 50 mg/kg. The compound further came in with an ED50 in [7] of over 50 mg/kg.
Turning to `NCCc1nnc2n1-c1ccccc1C(c1ccccc1)=NC2`, the ED50 is over 50 mg/kg in [1]; over 50 mg/kg in [2]; over 50 mg/kg in assay [3]; 30 mg/kg in assay [4]; over 50 mg/kg in assay [5]; 30 mg/kg in assay [6]. The compound further had an ED50 in assay [7] of 40 mg/kg.
Regarding `Clc1ccc2c(c1)C(c1ccccc1)=NCc1nnc(CCCN3CCN(c4ccccc4)CC3)n1-2`, the ED50 in [1] is over 50 mg/kg; in assay [8], 79 mg/kg; in [9] it was 89 mg/kg; in [2], over 50 mg/kg; in assay [3], 10 mg/kg; in assay [5], over 50 mg/kg.
Take `CN(C)Cc1nnc2n1-c1ccccc1C(c1ccccc1Cl)=NC2`: the ED50 is 17.8 mg/kg in assay [1]; 0.13 mg/kg in [9]; 10 mg/kg in assay [2]; over 10 mg/kg in assay [3]; over 30 mg/kg in assay [4]; 0.5 mg/kg in assay [5]. For the same compound, the ED50 in assay [6] and in assay [7] was over 30 mg/kg each time.
Turning to `CN(C)CCc1nnc2n1-c1ccc(Br)cc1C(c1ccccc1)=NC2`, the ED50 is 7 mg/kg in assay [1]; 5 mg/kg in assay [2]; 5 mg/kg in [3]; 3 mg/kg in [4]; 5 mg/kg in assay [5]; over 50 mg/kg in assay [6]. For the same compound, it took a dose of 0.9 mg/kg to reach the 50% effect level in assay [7] (ED50).
Consider `NCCc1nnc2n1-c1ccc(Br)cc1C(c1ccccc1)=NC2`, for which the ED50 in assay [1] is 20 mg/kg; in assay [2], over 50 mg/kg; in assay [3], 30 mg/kg; in assay [4] it was 20 mg/kg; in assay [5] it was over 50 mg/kg; in assay [6], over 50 mg/kg. Moreover, it took a dose of 7 mg/kg to reach the 50% effect level in [7] (ED50).
On to `CC(N)Cc1nnc2n1-c1ccc(Br)cc1C(c1ccccn1)=NC2` (stereo unspecified), for which the ED50 in assay [1] is over 50 mg/kg; in assay [2], over 50 mg/kg; in [3], 40 mg/kg; in [4], 7 mg/kg; in assay [5] it was over 50 mg/kg; in assay [6] it was 20 mg/kg. In assay [7], this compound yielded an ED50 of over 50 mg/kg.
On to `CN(C)CCc1nnc2n1-c1ccc(Br)cc1C(c1ccccn1)=NC2`, for which the ED50 was over 50 mg/kg in [1]; 20 mg/kg in [2]; 10 mg/kg in assay [3]; 4 mg/kg in assay [4]; over 50 mg/kg in assay [5]; 9 mg/kg in assay [6]. Also, it took a dose of 4 mg/kg to reach the 50% effect level in [7] (ED50).
In the case of `CN(C)Cc1nnc2n1-c1ccc(Br)cc1C(c1ccccc1)=NC2`, the ED50 in assay [1] is 0.8 mg/kg; in assay [2] it was 0.7 mg/kg; in assay [3], 0.1 mg/kg; in [4], 35.4 mg/kg; in [5], 0.8 mg/kg; in assay [6], over 50 mg/kg. In assay [7], this compound displayed an ED50 of 7.4 mg/kg.
As for `CN(C)Cc1nnc2n1-c1ccc(Cl)cc1/C(c1ccccc1)=N\CC2`, the ED50 in assay [1] is over 50 mg/kg; in assay [9] it was over 100 mg/kg; in [2], over 50 mg/kg; in [3], 15 mg/kg; in assay [4], over 50 mg/kg; in [6], over 50 mg/kg. Further, the ED50 in [7] was over 50 mg/kg.
With `CN(C)CCc1nnc2cc(-c3ccccc3)c3cc(Cl)ccc3n12`, the ED50 in [1] was over 50 mg/kg; in assay [2], over 50 mg/kg; in assay [3], over 50 mg/kg; in [4], 40 mg/kg; in [6], over 50 mg/kg; in assay [7], over 50 mg/kg.
Consider `C#CCN(C)Cc1nnc2n1-c1ccccc1C(c1ccccc1Cl)=NC2`, for which the ED50 in assay [1] was 2 mg/kg; in assay [2], 2 mg/kg; in assay [3], 8 mg/kg; in [4], over 50 mg/kg; in assay [5] it was 3 mg/kg; in assay [6] it was over 50 mg/kg. The ED50 in assay [7] is over 50 mg/kg.
With `CN(C)Cc1nnc2n1-c1ccc(Cl)cc1C(c1ccccc1)=NC2` [ADINAZOLAM], the 50% effective dose (ED50) came out at 0.7 mg/kg in assay [1]; 0.13 mg/kg in assay [8]; 0.9 mg/kg in assay [2]; 1.6 mg/kg in assay [3]; 5 mg/kg in [5].
In the case of `CCN(CC)Cc1nnc2n1-c1ccc(Cl)cc1C(c1ccccc1)=NC2`, the ED50 in [1] was 2.6 mg/kg; in assay [8], 0.08 mg/kg; in assay [9], 0.08 mg/kg; in assay [2] it was 3.1 mg/kg; in [3] it was 0.6 mg/kg; in assay [5], over 50 mg/kg.
With `CN(C)Cc1nnc2cc(-c3ccccc3)c3cc(Cl)ccc3n12`, the ED50 in [1] was over 50 mg/kg; in assay [8], 89 mg/kg; in assay [9] it was 89 mg/kg; in assay [2], over 50 mg/kg; in assay [3], over 50 mg/kg; in [6], over 50 mg/kg. The ED50 in [7] is over 50 mg/kg.
For `CN(C)CCc1nnc2n1-c1ccccc1C(c1ccccc1)=NC2`, the ED50 in [1] was over 50 mg/kg; in assay [2], over 50 mg/kg; in assay [3], 30 mg/kg; in assay [4] it was 40 mg/kg; in assay [5] it was over 50 mg/kg; in assay [6], 20 mg/kg. Besides, it took a dose of 10 mg/kg to reach the 50% effect level in [7] (ED50).
